According to patent US10519423B1, “High efficiency reprogramming of fibroblasts into cardiomyocytes” (The Regents of the University of Colorado, a body corporate, priority 2015, dated 2019):

Tests used:
Assay type in all cases: cell-based, mouse
MEFs [1] = assay: Intracellular staining for flow cytometry (cTnT, Myc) in retrovirus-infected MEFs; details: for cTnThigh fraction: day 7
Protocol: C57BL6 pregnant mice at E13 were order from Charles River's laboratory. Embryos at E14.5 were harvested and their internal organs and head were removed. The body below the liver was minced using blade to fine pieces. Minced embryos were incubated with 2 ml of 0.25% trypsinIl mM EDTA, Phenol Red (Gibco) for 40 mins at 37° C. with 5% CO2. Cells were suspended in 25 ml of growth medium (DMEM/Hi glucose (Hyclone) 10% FBS (Gemini), 1.1% Penicillin-Streptomycin (Gibco) and 1.1% GlutaMAX supplement (Gibco)) and then plated on a 15 cm dish. In 24 hours, the media was aspirated and new 25 ml of growth medium was added. In 72 hours, MEFs were harvested and stored for future use.
(§1) Fibroblasts were plated on tissue culture dishes pre-coated with SureCoat (Cellutron) at a density of ˜40 cells/mm^2 before transduction. The fibroblast growth medium was replaced with freshly made viral mixture containing polybrene (Sigma). Twenty-four hours later, fibroblasts were infected again with viral mixture containing polybrene. Twenty fours later, the viral medium was replaced with induction medium, composed of DMEM/199 (4:1) (Gibco), 10% FBS (Gemini), 5% horse serum(Gemini), antibiotics (Gibco), 1× non-essential amino acids (Gibco), 1× essential amino acids (Gibco), 1× B-27 (Gibco), 1× insulin-selenium-transferin (Gibco), 1× vitamin mixture (Gibco), and 1× sodium pyruvate (Gibco). Medium was changed every two-three days until cells were examined.
Adherent fibroblasts were washed with DPBS (Gibco). Cells were detached from culture dish by treatment with 0.25% Trypsin/EDTA (Gibco) for 3 min at 37° C. Cells were then washed with 4 ml of 5% FBS (Gemini) in DPBS filtered through a cell strainer and centrifuge at 1200 rpm×6 mins. Cells were washed with 500 ul of 1% BSA in DPBS. Cells were fixed with BD Cytofix/Cytoperm™ solution in 0.2 ml/1 million cells in 1.5 ml eppendorf tube for 20 min on ice. Cells were washed with 1 ml of BD perm/wash buffer and Centrifuged for 6 min at 1200 rpm. The supernatant was discarded; cells were washed again with 1 ml of BD Perm/wash buffer and left overnight at 4° C. The next day, Cells were centrifuged for 6 min at 1200 rpm, the supernatant discarded and 100 μl of Blocking buffer made with 5% goat, donkey serum (Sigma: G9023 and D9663) in Perm/wash buffer was added to the cells and incubated for 30 min at RT. A primary antibody: Mouse Troponin T (cTnT) antibody (Thermo Scientific, ms-295-p, 1:200), mouse anti-C-Myc antibody (BD Pharmingen, 551102, 1:200) in 100 μl BD Perm/Wash buffer was added to the cells and incubated for 1 hr at RT. One ml cold BD Perm/wash buffer was added to the cells and centrifuged for 6 min at 1200 rpm. […] Cells were re-suspended in 300 ul of 1% BSA/DPBS and then analyzed using FACS Caliber (BD Sciences) and FlowJo software.

[2] = test system: adult tail-tip fibroblasts (ATTFs); assay: Immunocytochemistry for cTnT and α-actinin in adult tail-tip fibroblasts; details: GHMT2m-infected ATTFs; DMSO or A83-01 for 2 weeks
Protocol: (§2) Hearts or skinned tails from adult C57BL6 mice were cut into small pieces with ˜1 mm diameter. The biopsies were seeded on a 10 cm culture dish and incubated with 10 mL of growth medium (DMEM/Hi glucose (Hyclone), 10% FBS (Gemini:), 1.1% Penicillin-Streptomycin (Gibco) and 1.1% GlutaMAX supplement (Gibco)) at 37° C. with 5% CO2. TTFs migrated out of the biopsies after 3 days. The media were changed every other day. Once the TTFs have reached a 70-80% confluence, the cells were harvested and stored for future use.
as §1
Cells were fixed in 2% PFA for 15 min on ice then washed with DPBS (Gibco) three times at RT. […]

MEFs [3] = assay: qPCR of cardiac genes in reprogramming MEFs; details: reprogramming MEFs treated with A83-01 for 5 days, day 7
Protocol: (§3) Cells were harvested in TRizol reagent (Ambion) for RNA isolation. RNA was extracted with the RNeasy® Plus Universal Mini Kit (Qiagen). RT-PCR was performed using the Superscript III first-strand synthesis system (Invitrogen). qPCR was performed using the SYBR® Green PCR master mix (Applied Biosystems) or StepOne™ Real-Time PCR Systems (Applied Biosystems). Primers are listed in Supplementary Table 1. Ryr2 (Mm00465877_m1) and Myh7 (Mm01319006_91) are Taqman probes (Life technologies).

TTFs = assay: qPCR of cardiac genes in tail-tip fibroblasts; details: GHMT2m-TTFs treated with A83-01 for 4 weeks
Protocol: as §2, §3

MEFs [4] = assay: Immunocytochemistry for cTnT and α-actinin in infected MEFs; details: day 14, without or with A83-01
Protocol: as §1
Cells were fixed in 2% PFA for 15 min on ice then washed with DPBS (Gibco) three times at RT. The cells were permeabilized in 0.5% Triton X-100 (made in PBS) for 20 min at RT. After washing the cells with DPBS (Gibco), cells were incubated with the primary antibody against α-actinin (Sigma A7811, 1:300), Connexin 43 (Sigma, C6219, 1:500), Troponin T (Thermo Scientific MS-245-P, 1:500), α-SMA (Santa Cruz Biotechnology, SC-32251, 1:800), Myl2 (Proteintech, 10906-1-AP, 1:200), or Myl7 (Proteintech, 17283-1-AP, 1:200) in 10% FBS(Gemini) in DPBS for 1 hour at RT. Cells were wash with DPBS three times, 5 min each. Cell were incubated with the secondary antibody (Alexa Fluor 555 Molecular Probes A21422, 1:1000) and Hoechest (Molecular Probes 33342, 1:5000) for 30 mins at RT.

MEFs [5] = assay: Counting of spontaneously beating cells in infected MEFs
Protocol: as §1
Cells in 60 mm dishes were examined under an EVOS® FL Color imaging system (Life Technologies) at 25° C. Beating cells were counted at a field with an area of 0.89 mm^2. Ten to fifteen fields in each dish were randomly chosen.

Cc1cccc(-c2nn(C(=S)Nc3ccccc3)cc2-c2ccnc3ccccc23)n1 [A83-01]
cTnThigh fraction (MEFs [1]; GHMT2m-infected MEFs, alone or treated with A83-01 (0.5 μM, day 3 to day 7)): approximately 45.6% | cTnThigh fraction (MEFs [1]; GHMT-infected MEFs, alone or treated with TGF-β1 (10 ng/ml) or A83-01 (0.5 μM, day 3 to day 7)): approximately 30.7% | induction of cTnT+ cells by the small molecule alone (MEFs [1]; MEFs without reprogramming factors, flow cytometry): did not induce cTnT+ cells | adult TTFs positive for cTnT and α-actinin [2]: approximately 30% | program of cardiomyocyte gene expression (MEFs [3]): enhanced | cardiomyocyte gene expression (TTFs): Enhanced | proportion of cTnT+ cells (immunostaining) (MEFs [4]; GHMT2m-cultures of MEFs): ~67% | proportion of α-actinin+ cells (immunostaining) (MEFs [4]; GHMT2m-cultures of MEFs): ~64% | proportion of cTnT+ cells (immunostaining) (MEFs [4]; GHMT-cultures of MEFs): approximately 58% | proportion of α-actinin+ cells (immunostaining) (MEFs [4]; GHMT-cultures of MEFs): approximately 57% | increase of the number of beating cells (MEFs [5]; GHMT2m-infected MEFs treated with A83-01, by day 8): 8 fold | spontaneously contracting cells per cm^2 (MEFs [5]; GHMT-infected MEFs treated with A83-01 (0.5 μM), by 4 weeks): about 4400 cells per cm^2 | time by which cells started to beat (MEFs [5]; MEFs, GHMT2m alone, or GHMT-infected cultures treated with Y-27632 (30 μM) or A83-01 (0.5 μM)): ≤ 11 days
